The molecules below were run against C-Raf FL (Homo sapiens (Human), UniProt P04049, Y340E/Y341E) (assay: In vitro Raf activity determination (Alpha Screen, phospho-MEK), C-Raf FL (full length, Y340E/Y341E)). Conditions: ATP 1 μM; 60 min pre-incubation; 1 hour reaction; column head does not say FL or TR.
C-Raf FL, sequence (P04049 whole entry Y340E/Y341E): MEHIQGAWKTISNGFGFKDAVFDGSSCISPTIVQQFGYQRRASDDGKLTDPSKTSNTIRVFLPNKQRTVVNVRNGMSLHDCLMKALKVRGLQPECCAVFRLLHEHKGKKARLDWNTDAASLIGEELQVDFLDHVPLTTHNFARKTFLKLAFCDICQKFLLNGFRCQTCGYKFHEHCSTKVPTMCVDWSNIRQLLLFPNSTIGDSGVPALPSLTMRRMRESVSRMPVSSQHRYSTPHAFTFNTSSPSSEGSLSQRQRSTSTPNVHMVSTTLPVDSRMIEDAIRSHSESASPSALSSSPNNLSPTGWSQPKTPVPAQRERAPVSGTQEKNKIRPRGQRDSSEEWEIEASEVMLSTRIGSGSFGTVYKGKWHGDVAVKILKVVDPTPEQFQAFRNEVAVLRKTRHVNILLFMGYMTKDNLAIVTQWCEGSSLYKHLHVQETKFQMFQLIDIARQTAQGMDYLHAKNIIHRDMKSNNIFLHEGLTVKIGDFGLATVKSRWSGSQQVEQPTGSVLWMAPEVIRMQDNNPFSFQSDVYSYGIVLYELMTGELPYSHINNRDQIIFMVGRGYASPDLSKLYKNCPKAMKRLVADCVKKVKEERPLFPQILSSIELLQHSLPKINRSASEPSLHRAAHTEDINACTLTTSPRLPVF
C-Raf FL, sequence (P63104 whole entry partner): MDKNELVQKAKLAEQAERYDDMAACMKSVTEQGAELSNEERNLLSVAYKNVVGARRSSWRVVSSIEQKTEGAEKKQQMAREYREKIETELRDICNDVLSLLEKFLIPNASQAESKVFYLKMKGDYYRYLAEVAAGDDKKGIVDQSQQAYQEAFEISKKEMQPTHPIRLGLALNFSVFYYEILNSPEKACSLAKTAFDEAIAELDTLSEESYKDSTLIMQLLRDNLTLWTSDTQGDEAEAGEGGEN
Format: biochemical
Method in brief: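 Read-out is AlphaScreen luminescence using rabbit anti-p-MEK with protein A beads after EDTA stop, with IC50 fitted by non-linear regression. Reaction: Sf9-derived C-Raf plus biotinylated E. coli MEK1 K97R substrate, pH 7.5 Tris/MgCl2/DTT buffer, compound preincubated 60 min at room temperature.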
Molecule CCOc1nnc(-c2cc(NC(=O)c3ccnc(C4(C(F)(F)F)CC4)c3)ccc2C)cc1C1CCOCC1 [Example 227, N-(3-(6-ethoxy-5-(tetrahydro-2H-pyran-4-yl)pyridazin-3-yl)-4-methylphenyl)-2-(1-(trifluoromethyl)cyclopropyl) isonicotinamide] has an IC50 of 200 pM.
With COc1ncc(-c2cc(NC(=O)c3cc(C(F)(F)F)cc(C(C)(C)N)n3)ccc2C)cc1C1(C(F)F)COC1 [Example 149, 6-(2-aminopropan-2-yl)-N-(3-(5-(3-(difluoromethyl)oxetan-3-yl)-6-methoxypyridin-3-yl)-4-methylphenyl)-4-(trifluoromethyl)picolin-amide] the IC50 was 871 pM.
Work on COc1cc(C(=O)Nc2ccc(C)c(-c3cc(OCCO)nc(C4CCOCC4)c3)c2)ncn1 [Example 267, N-(3-(2-(2-hydroxyethoxy)-6-(tetrahydro-2H-pyran-4-yl)pyridin-4-yl)-4-methylphenyl)-6-methoxypyrimidine-4-carboxamide] yielded an IC50 of 5 pM.
In the case of Cc1ncc(NC(=O)c2ccc(CN)c(C(F)(F)F)c2)cc1-c1cc(C2COC2)c2nccn2n1 [Example 10, 4-(aminomethyl)-N-(6-methyl-5-(8-(oxetan-3-yl)imidazo[1,2-b]pyridazin-6-yl)pyridin-3-yl)-3-(trifluoromethyl)benzamide], the IC50 is reported as 2000 pM.
Cc1ccc(NC(=O)c2ccnc(C(F)(F)F)n2)cc1-c1cc(OCCO)nc(C2CCOCC2)c1 [Example 254, N-(3-(2-(2-hydroxyethoxy)-6-(terahydro-2H-pyran-4-yl)pyridin-4-yl)-4-methylphenyl)-2-(trifluoromethyl) pyrimidine-4-carboxamide] showed an IC50 of 300 pM.
Cc1ccc(NC(=O)c2ccnc(C(C)(F)F)c2)cc1-c1c[nH]c(=O)c(C2(O)COC2)c1 [Example 13, 2-(1,1-difluoroethyl)-N-(3-(5-(3-hydroxyoxetan-3-yl)-6-oxo-1,6-dihydropyridin-3-yl)-4-methylphenyl)isonicotinamide] showed an IC50 of 1000 pM.
For CCN1CCC(Oc2nnc(-c3cc(NC(=O)c4ccnc(C(F)(F)F)c4)ccc3C)cc2C2CCOCC2)CC1 [Example 314, N-(3-(6-((1-ethylpiperidin-4-yl)oxy)-5-(tetrahydro-2H-pyran-4-yl)pyridazin-3-yl)-4-methylphenyl)-2-(trifluoromethyl) isonicotinamide], the IC50 was 60 pM.
Work on CCOc1ncc(-c2cc(NC(=O)c3ccnc(C(C)(C)F)c3)ccc2C)cc1C1(O)CCOC1 (stereo not shown) [Example 295, N-(3-(6-ethoxy-5-(3-hydroxytetra-hydrofuran-3-yl)pyridin-3-yl)-4-methylphenyl)-2-(2-fluoropropan-2-yl)isonicotinamide] yielded an IC50 of 1000 pM.
CCOc1ncc(-c2cc(NC(=O)c3ccnc(C(C)(C)F)c3)cnc2C)cc1C1(CF)COC1 [Example 32, N-(6′-ethoxy-5′-(3-(fluoromethyl)oxetan-3-yl)-2-methyl-[3,3′-bipyridin]-5-yl)-2-(2-fluoropropan-2-yl)isonicotinamide] gave an IC50 of 300 pM.
CCOc1ncc(-c2cc(NC(=O)c3ccnc(C(F)(F)F)c3)ccc2C)cc1C1(C#N)CCOC1 (stereo not shown) [Example 168, N-(3-(5-(3-cyanotetrahydrofuran-3-yl)-6-ethoxypyridin-3-yl)-4-methylphenyl)-2-(trifluoromethyl) isonicotinamide] gave an IC50 of 300 pM.
Work on CCOc1nnc(-c2cc(NC(=O)c3cncc(C(F)(F)F)c3)ccc2C)cc1C1CCOCC1 [Example 231, N-(3-(6-ethoxy-5-(tetrahydro-2H-pyran-4-yl)pyridazin-3-yl)-4-methylphenyl)-5-(trifluoromethyl) nicotinamide] yielded an IC50 of 200 pM.
Cc1ccc(NC(=O)c2cccc(C(F)(F)F)c2)cc1-c1cc(C2(O)COC2)cc(C2(F)COC2)c1 [Example 134, N-(3′-(3-fluorooxetan-3-yl)-5′-(3-hydroxyoxetan-3-yl)-6-methyl-[1,1′-biphenyl]-3-yl)-3-(trifluoromethyl)benzamide] showed an IC50 of 566 pM.
For Cc1ccc(NC(=O)c2ccnc(C(F)(F)F)c2)cc1-c1cc(OCCO)nc(C2CCOCC2)c1 [Example 190, N-(3-(2-(2-hydroxyethoxy)-6-(tetrahydro-2H-pyran-4-yl)pyridin-4-yl)-4-methylphenyl)-2-(trifluoromethyl) isonicotinamide], the IC50 was 795 pM.
In the case of Cc1ncc(NC(=O)c2ccc(CN)c(C(F)(F)F)c2)cc1-c1cccc(C2(C)COC2)c1 [Example 8], the IC50 is reported as 1000 pM.
In the case of Cc1ccc(NC(=O)c2ccnc(C(F)(F)F)c2)cc1-c1cc(NCCO)nc(C2(O)COC2)c1 [Example 299, N-(3-(2-((2-hydroxyethyl)amino)-6-(3-hydroxyoxetan-3-yl)pyridin-4-yl)-4-methylphenyl)-2-(trifluoromethyl) isonicotinamide], the IC50 is reported as 100 pM.
Cc1ccc(NC(=O)c2ccnc(C(C)(C)F)c2)cc1-c1cc(OCCO)nc(C2CCOCC2O)c1 (stereo not shown) [Example 244, 2-(2-fluoropropan-2-yl)-N-(3-(2-(2-hydroxyethoxy)-6-(3-hydroxytetrahydro-2H-pyran-4-yl)pyridin-4-yl)-4-methylphenyl) isonicotinamide] showed an IC50 of 3000 pM.
With Cc1ncc(NC(=O)c2cccc(C(F)(F)F)c2)cc1-c1cc(C2(F)COC2)c(=O)n(CCO)c1 [Example 46, N-(5′-(3-fluorooxetan-3-yl)-1′-(2-hydroxyethyl)-2-methyl-6′-oxo-1′,6′-dihydro-[3,3′-bipyridin]-5-yl)-3-(trifluoromethyl)benzamide] the IC50 was 51500 pM.
CCOc1nnc(-c2cc(NC(=O)c3ccnc(C#N)c3)ccc2C)cc1C1CCOCC1 [Example 229, 2-cyano-N-(3-(6-ethoxy-5-(tetrahydro-2H-pyran-4-yl)pyridazin-3-yl)-4-methylphenyl)] showed an IC50 of 700 pM.
Molecule CCOc1nnc(-c2cc(NC(=O)c3cnc(C(F)(F)F)cn3)ccc2C)cc1C1CCOCC1 [Example 230, N-(3-(6-ethoxy-5-(tetrahydro-2H-pyran-4-yl)pyridazin-3-yl)-4-methylphenyl)-5-(trifluoromethyl) pyrazine-2-carboxamide] has an IC50 of 11000 pM.
For CCOc1nnc(-c2cc(NC(=O)c3cccc(C(F)(F)F)c3)cnc2C)cc1C1CCOCC1 [Example 234, N-(5-(6-ethoxy-5-(tetrahydro-2H-pyran-4-yl)pyridazin-3-yl)-6-methylpyridin-3-yl)-3-(trifluoromethyl) benzamide], the IC50 was 80 pM.
Cc1ccc(NC(=O)c2ccnc(C(F)(F)F)c2)cc1-c1cc(C2CCOCC2)c(OC2CCOCC2)nn1 [Example 313, N-(4-methyl-3-(5-tetrahydro-2H-pyran-4-yl-6-((tetrahydro-2H-pyran-4-yl)oxy)pyridazin-3-yl)phenyl)-2-(trifluoromethyl)isonicotinamide] showed an IC50 of 70 pM.
In the case of CCOc1ncc(-c2cc(NC(=O)c3ccnc(C(C)(C)F)c3)cnc2C)cc1C1(O)CCOC1 (stereo not shown) [Example 296, N-(6′-ethoxy-5′-(3-hydroxytetrahydro-furan-3-yl)-2-methyl-[3,3′-bipyridin]-5-yl)-2-(2-fluoropropan-2-yl)isonicotinamide], the IC50 is reported as 4000 pM.
Cc1ccc(NC(=O)c2ccnc(C#N)c2)cc1-c1cc(OC[C@H](O)CO)nc(C2CCOCC2)c1 [Example 279, (R)-2-cyano-N-(3-(2-(2,3-dihydroxypropoxy)-6-(tetrahydro-2H-pyran-4-yl)pyridin-4-yl)-4-methylphenyl) isonicotinamide] gave an IC50 of 70 pM.
CCOc1nnc(-c2cc(NC(=O)c3ccnc(C(C)(F)F)c3)ccc2C)cc1C1CCOCC1 [Example 225, 2-(1,1-difluoroethyl)-N-(3-(6-ethoxy-5-(tetrahydro-2H-pyran-4-yl)pyridazin-3-yl)-4-methylphenyl) isonicotinamide] showed an IC50 of 20 pM.
Work on Cc1nc2cc(C3CCOCC3)cc(-c3cc(NC(=O)c4cc(C(F)(F)F)ccn4)ccc3C)c2[nH]1 [Example 224, N-(4-methyl-3-(2-methyl-5-(tetrahydro-2H-pyran-4-yl)-1H-benzo[d]imidazol-7-yl)penyl)-4-(trifluoromethyl) picolinamide] yielded an IC50 of 5000 pM.
CCOc1nnc(-c2cc(NC(=O)c3cnc(N4CCN(CC)CC4)c(C(F)(F)F)c3)ccc2C)cc1C1CCOCC1 [Example 241, N-(3-(6-ethoxy-5-(tetrahydro-2H-pyran-4-yl)pyridazin-3-yl)-4-methylphenyl)-6-(4-ethylpiperazin-1-yl)-5-(trifluoromethyl) nicotinamide] gave an IC50 of 100 pM.
Molecule Cc1ccc(NC(=O)c2ccnc(C(C)(F)F)c2)cc1-c1cc(OCCO)nc(C2CCOCC2)c1 [Example 269, 2-(1,1-difluoroethyl)-N-(3-(2-(2-hydroxyethoxy)-6-(tetrahydro-2H-pyran-4-yl)pyridin-4-yl)-4-methylphenyl) isonicotinamide] has an IC50 of 30 pM.
For CCOc1nnc(-c2cc(NC(=O)c3ccnc(C(F)(F)F)c3)ccc2C)cc1C1CCOCC1 [Example 239, N-(3-(6-ethoxy-5-(tetrahydro-2H-pyran-4-yl)pyridazin-3-yl)-4-methylphenyl)-2-(trifluoromethyl) isonicotinamide], the IC50 was 40 pM.
For CCOc1ncc(-c2cc(NC(=O)c3ccnc(C(C)(C)F)c3)ccc2C)cc1C1(CO)CCOC1 (stereo not shown) [Example 291, N-(3-(6-ethoxy-5-(3-(hydroxymethyl)tetrahydrofuran-3-yl)pyridin-3-yl)-4-methylphenyl)-2-(2-fluoropropan-2-yl)isonicotinamide], the IC50 was 1000 pM.
Cc1ccc(NC(=O)c2ccnc(C(F)(F)F)c2)cc1-c1cc(C2CCOCC2)c(N[C@H](C)CO)nn1 [Example 310, (R)-N-(3-(6-((1-hydroxypropan-2-yl)amino)-5-(tetrahydro-2H-pyran-4-yl)pyridazin-3-yl)-4-methylphenyl)-2-(trifluoromethyl) isonicotinamide] gave an IC50 of 40 pM.
Cc1ccc(NC(=O)NCCC(C)(C)C)cc1-c1cc(OCCO)nc(C2CCOCC2)c1 [Example 319, 1-(3,3-dimethylbutyl)-3-(3-(2-(2-hydroxyethoxy)-6-(tetrahydro-2H-pyran-4-yl)pyridin-4-yl)-4-methylphenyl)urea] gave an IC50 of 100 pM.
